We go through nine compounds from ChEMBL document CHEMBL1177795, “Synthesis of two marine farnesylacetones that dilate the basilar arteries of rabbits” (Bioorg Med Chem Lett, 2010).

pEC50: −log10 of the molar value.

A short description of assay [1]: Vasorelaxant activity against depolarization-induced basilar artery constriction in white rabbit at 10 uM. More on the design: scale not given: the % may be the effect or the level left. Type of assay: functional, Oryctolagus cuniculus.
The nature of assay [2]: Vasorelaxant activity against depolarization-induced basilar artery constriction in white rabbit. It counts as functional, tissue-based, Oryctolagus cuniculus.

The compound `C/C(=C\C#N)CCC/C(C)=C/CCC1(C)OCCO1` returned an Activity in assay [1] of 44.6%.

Turning to `CC(=O)CC/C=C(\C)CCC/C(C)=C/C(O)CC(C)C` (stereo unspecified), in assay [2], the pEC50 (as a rule, the negative decadic logarithm of the EC50, by convention in mol/L) was 5.62. In addition, in assay [1], the Activity came out at 98.9%.

For the compound `CC(=O)CC/C=C(\C)CCC/C(C)=C/C=O`, in assay [1], the Activity is listed as 12.6%.

For `C/C(=C\CC/C(C)=C/CCC1(C)OCCO1)CC#N`, in assay [1], the Activity turned out to be 33.5%.

As to `C/C(=C\CCC1(C)OCCO1)CCC/C(C)=C/C(O)CC(C)C` (stereo unspecified), in assay [2], the pEC50 is 5.85. Also, the Activity in assay [1] is listed as 99.8%.

With `CC(=O)CC/C=C(\C)CC/C=C(\C)CC#N`, in assay [1], the Activity came to 13.1%.

In assay [1], `CC(=O)CC/C=C(\C)CCC/C(C)=C/C#N` came in with an Activity of 10.3%.

`C/C(=C\CCC1(C)OCCO1)CCC/C(C)=C/C(=O)CC(C)C` had an Activity in assay [1] of 83.3%.

In assay [1], `C/C(=C\C=O)CCC/C(C)=C/CCC1(C)OCCO1` returned an Activity of 20.1%.
